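Protocol summary: plate cells (96-well), add compound at 5 concentrations, incubate 48 h, interpolate endpoints linearly. TGI: total growth inhibition.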
Key:
Test in all cases: growth of human tumour cells (NCI), 48 h
786-0 renal = tested on: 786-0 renal
A549 NSCLC = tested on: A549 NSCLC
CCRF-CEM leukemia = tested on: CCRF-CEM leukemia
HCT-116 colon = tested on: HCT-116 colon
HL-60(TB) leukemia = tested on: HL-60(TB) leukemia
HT29 colon = tested on: HT29 colon
KM12 colon = tested on: KM12 colon
NCI-H460 lung = tested on: NCI-H460 lung
SF-268 CNS = tested on: SF-268 CNS
SK-MEL-28 melanoma = tested on: SK-MEL-28 melanoma
SK-MEL-5 melanoma = tested on: SK-MEL-5 melanoma
SK-OV-3 ovarian = tested on: SK-OV-3 ovarian
SNB-75 CNS = tested on: SNB-75 CNS

Compound | TGI (786-0 renal) | TGI (A549 NSCLC) | TGI (CCRF-CEM leukemia) | TGI (HCT-116 colon) | TGI (HL-60(TB) leukemia) | TGI (HT29 colon) | TGI (KM12 colon) | TGI (NCI-H460 lung) | TGI (SF-268 CNS) | TGI (SK-MEL-28 melanoma) | TGI (SK-MEL-5 melanoma) | TGI (SK-OV-3 ovarian) | TGI (SNB-75 CNS)
O=C(CSc1nnc(-c2ccc(N=Cc3ccc(Cl)cc3)cc2)o1)Nc1ccccc1[N+](=O)[O-] | > 100 µM | > 100 µM | > 100 µM | > 100 µM | > 100 µM | > 100 µM | > 100 µM | > 100 µM | > 100 µM | > 100 µM | > 100 µM | > 100 µM | > 100 µM
C/C(CC(=O)Nc1ccc([N+](=O)[O-])cc1)=N\NC(N)=O | > 100 µM | > 100 µM | > 71.4 µM | > 100 µM | > 100 µM | > 100 µM | > 100 µM | > 100 µM | > 100 µM | > 100 µM | > 100 µM | > 100 µM | > 100 µM
CC(=O)OC1COC(n2c(O)c(N=NC(N)=S)c3cc(Br)ccc32)C(OC(C)=O)C1OC(C)=O (stereo unspecified) | > 100 µM | > 100 µM | > 100 µM | > 100 µM | > 100 µM | > 100 µM | > 100 µM | > 100 µM | > 100 µM | > 100 µM | > 100 µM | > 100 µM | 
C/C(=N\NS(=O)(=O)c1ccc(C)cc1)C(CN1CCCCC1)C(c1ccccc1)c1c(O)c2ccccc2oc1=O (stereo unspecified) | > 100 µM | > 100 µM | > 100 µM | > 100 µM | > 100 µM | > 100 µM | > 100 µM | > 100 µM | > 100 µM |  | > 100 µM | > 100 µM | > 100 µM
CCCCOC(=O)C1C2CCC(O2)C1C(=O)OCCCC (stereo unspecified) | > 60.9 µM | > 100 µM | > 100 µM | > 65.1 µM | > 100 µM | > 64.2 µM | > 100 µM | > 47.1 µM | > 100 µM | > 100 µM | > 100 µM | > 100 µM | > 100 µM
COC(=O)C(=O)C(C(=O)C(=O)Nc1ccc(F)cc1)c1nc2ccc([N+](=O)[O-])cc2[nH]c1=O (stereo unspecified) | > 100 µM | > 100 µM | > 100 µM | > 100 µM | > 100 µM | > 100 µM | > 100 µM | > 100 µM | > 100 µM | > 100 µM | > 100 µM | > 100 µM | > 100 µM
COc1ccc2c3c1O[C@]1(C)C34CCN(C)C(C2)C42C=C[C@@]1(OC)c1c(O)ccc(O)c12 | > 100 µM | > 100 µM | > 100 µM | > 100 µM | > 100 µM | > 100 µM | > 100 µM | > 100 µM | > 100 µM | > 100 µM | > 100 µM | > 100 µM | > 100 µM
NC(=O)N/N=C(\CC1OC(=O)c2ccccc21)c1ccco1 (stereo unspecified) | > 100 µM | > 100 µM | > 100 µM | > 100 µM | > 100 µM | > 100 µM | > 100 µM | > 100 µM | > 100 µM | > 100 µM | > 100 µM | > 100 µM | > 100 µM
COC(=O)N/N=C(\Cc1ccccc1)CN(C)C | > 100 µM | > 100 µM | > 100 µM | > 100 µM | > 100 µM | > 100 µM | > 100 µM | > 100 µM | > 100 µM | > 100 µM | > 100 µM | > 100 µM | > 100 µM
O=c1[nH]c2cc([N+](=O)[O-])ccc2nc1/C(=N/Nc1ccccc1)C(O)c1ccccc1Cl (stereo unspecified) | > 100 µM | > 100 µM | > 100 µM | > 100 µM | > 100 µM | > 100 µM | > 100 µM | > 100 µM | > 100 µM | > 100 µM | > 100 µM | > 100 µM | > 100 µM
Nc1ccnc(=O)[nH]1 | > 100 µM | > 100 µM | > 100 µM | > 100 µM | > 100 µM | > 100 µM | > 100 µM | > 100 µM | > 100 µM | > 100 µM | > 100 µM | > 100 µM | > 100 µM
CCOC(=O)N1CCN(C=S)CC1 | > 100 µM | > 100 µM | > 100 µM | > 100 µM | > 100 µM | > 100 µM | > 100 µM | > 100 µM | > 100 µM | > 100 µM | > 100 µM | > 100 µM | > 100 µM
O=c1[nH]c2cc(Cl)ccc2nc1/C(=N\O)C(O)c1cccc([N+](=O)[O-])c1 (stereo unspecified) | > 100 µM | > 100 µM | > 100 µM | > 100 µM | > 100 µM | > 100 µM | > 100 µM | > 100 µM |  | > 100 µM | > 100 µM | > 100 µM | > 100 µM
CCCCNc1nc(C#N)c(N)s1 | > 100 µM | > 100 µM |  | > 100 µM | > 100 µM | > 100 µM | > 100 µM | > 100 µM | > 100 µM | > 100 µM |  | > 100 µM | > 100 µM
O=C(c1cccs1)N(C(=S)N1CCN(c2ccccn2)CC1)c1ccccc1 | > 100 µM | > 100 µM | > 100 µM | > 100 µM | > 100 µM | > 100 µM | > 100 µM | > 100 µM | > 100 µM | > 100 µM | > 100 µM | > 100 µM | > 100 µM
Cn1cc2ccccc2c1-c1nc(F)nc(F)n1 | > 100 µM | > 100 µM | > 100 µM | > 100 µM | > 100 µM | > 100 µM | > 100 µM | > 100 µM | > 100 µM | > 100 µM | > 100 µM | > 100 µM | > 100 µM
C[C@]12CCC(=O)C=C1CC[C@@H]1[C@@H]2CC[C@]2(C)C(=O)NC(=O)C[C@@H]12 | > 100 µM | > 100 µM | > 100 µM | > 100 µM | > 100 µM | > 100 µM | > 100 µM | > 100 µM | > 100 µM | > 100 µM | > 100 µM | > 100 µM | > 100 µM
CNS(=O)(=O)NN(C)S(=O)(=O)c1ccccc1 | > 100 µM | > 100 µM | > 100 µM | > 100 µM | > 100 µM | > 100 µM | > 100 µM | > 100 µM | > 100 µM |  | > 100 µM |  | > 100 µM
Cn1cc(C(=O)NCCC(=N)N)cc1NC(=O)C1=[N+](C)C=C(NC(=O)c2cccc(C(=O)NC3=CC(C(=O)Nc4cc(C(=O)NCCC(=N)N)cn4C)=[N+](C)C3)c2)C1 | > 100 µM | > 100 µM | > 100 µM |  | > 100 µM | > 100 µM | > 100 µM | > 100 µM | > 100 µM | > 100 µM | > 100 µM | > 100 µM | > 100 µM
C=Cc1ccc(C)[n+](C[Si](C)(C)O[Si](C)(C)C)c1 | > 100 µM | > 100 µM | > 100 µM | > 100 µM |  | > 100 µM | > 100 µM |  | > 100 µM | > 100 µM | > 100 µM | > 100 µM | > 100 µM
CC(=O)OCC1=C(CCC#N)N2C(=O)C(NC(=O)Cc3cccs3)C2S(=O)C1 (stereo unspecified) | > 100 µM | > 100 µM | > 100 µM | > 100 µM | > 100 µM | > 100 µM | > 100 µM | > 100 µM | > 100 µM | > 100 µM | > 100 µM | > 100 µM | > 100 µM
CCN(CC)c1c(C(=O)/C=C/c2ccc(OC)cc2)c(-c2ccccc2)nn(C)c1=O | 41.2 µM | 81 µM | 45.6 µM |  | 43.9 µM | 41.3 µM | 37.1 µM | 35.4 µM | 73.1 µM | 35.7 µM | 21.5 µM | > 100 µM | 
Oc1ccccc1/C=C/c1csnn1 | > 31.6 µM | > 100 µM | > 100 µM | > 100 µM | 99.7 µM | > 100 µM | > 100 µM | > 100 µM | > 100 µM | > 100 µM | > 100 µM | > 100 µM | > 100 µM
NC1=C(NC(=O)Cc2ccc(F)cc2)C(=O)c2ccccc2C1=O | > 100 µM | > 100 µM | > 100 µM | > 91.1 µM | 98.6 µM | > 100 µM | > 100 µM | > 100 µM | > 100 µM | > 100 µM | > 100 µM | 56.1 µM | 52.5 µM
COc1cc2c(oc(=O)c3c4oc([Si](C)(C)C)cc4cc(OC)c23)c2cccc(OCc3ccccc3)c12 | 34.8 µM | > 100 µM | > 100 µM | > 100 µM | > 92 µM | > 100 µM | > 100 µM | > 100 µM | > 70.7 µM | > 85.9 µM | > 100 µM | > 73.2 µM | 48 µM
c1ccc2c(c1)cc(C1NCCc3[nH]cnc31)c1ccccc12 (stereo unspecified) | > 60.8 µM | > 100 µM | > 67.9 µM | 42.7 µM | > 100 µM | > 100 µM | > 100 µM | > 53.6 µM | > 100 µM | > 65.5 µM | > 69.8 µM | > 100 µM | > 100 µM
